pIC50, pKi: −log10 of the molar value.
Columns and labels:
[1] = target: T1, 5-HT1A serotonin receptor subtype (Rattus norvegicus, UniProt P19327); experiment: Affinity for 5-HT1A receptor sites, displacement of 3H-8-OH DPAT (Hall et al.); format: binding; conditions: for inhibition at 1 µM: 1 μM test compound
T1 construct: from tissue
T1 sequence (P19327 1-422): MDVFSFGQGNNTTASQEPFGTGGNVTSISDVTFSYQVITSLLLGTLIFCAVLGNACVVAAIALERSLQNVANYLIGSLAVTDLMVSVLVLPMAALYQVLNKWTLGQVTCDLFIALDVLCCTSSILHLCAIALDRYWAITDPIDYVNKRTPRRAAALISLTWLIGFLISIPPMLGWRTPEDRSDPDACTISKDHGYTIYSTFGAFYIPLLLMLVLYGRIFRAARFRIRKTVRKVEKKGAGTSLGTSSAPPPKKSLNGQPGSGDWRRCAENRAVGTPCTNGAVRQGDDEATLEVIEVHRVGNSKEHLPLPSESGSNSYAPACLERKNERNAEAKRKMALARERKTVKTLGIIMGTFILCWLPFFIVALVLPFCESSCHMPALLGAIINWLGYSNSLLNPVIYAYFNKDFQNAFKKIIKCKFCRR
Source text: The serotoninergic properties of the compounds of this invention were established by the procedure of Hall et al., J. Neurochem.

[2] = target: T2, limbic D2 (dopamine) receptor (Rattus norvegicus, UniProt P61169); experiment: Affinity for D2 receptor sites, inhibition of 3H-spiroperidol binding to limbic brain tissue; conditions: 1 μM test compound
T2 construct: from tissue; host or cells: limbic brain tissue
T2 sequence (P61169 whole entry): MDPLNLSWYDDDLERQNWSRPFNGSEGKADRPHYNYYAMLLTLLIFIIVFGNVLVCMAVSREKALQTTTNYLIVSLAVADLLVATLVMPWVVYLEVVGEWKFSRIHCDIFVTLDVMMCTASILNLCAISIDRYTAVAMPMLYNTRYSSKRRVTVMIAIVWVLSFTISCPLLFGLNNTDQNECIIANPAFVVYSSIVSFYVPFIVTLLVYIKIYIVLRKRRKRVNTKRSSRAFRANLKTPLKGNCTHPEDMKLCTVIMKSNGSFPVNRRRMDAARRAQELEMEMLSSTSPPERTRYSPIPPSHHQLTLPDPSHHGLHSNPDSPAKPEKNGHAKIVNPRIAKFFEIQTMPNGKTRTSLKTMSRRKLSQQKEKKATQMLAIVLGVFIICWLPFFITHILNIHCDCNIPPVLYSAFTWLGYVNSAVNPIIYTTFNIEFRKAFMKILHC

M2 muscarinic receptor = target: T3, M2 muscarinic receptor (Rattus norvegicus, UniProt P10980); experiment: M2 receptor binding, [3H] quinuclidinyl benzilate, rat cerebellum; conditions: [3H] quinuclidinyl benzilate 0.23 nM, 37° C., 60 minutes
T3 construct: Homogenized rat cerebellum tissue; from tissue; host or cells: rat cerebellum
T3 sequence (P10980 1-466): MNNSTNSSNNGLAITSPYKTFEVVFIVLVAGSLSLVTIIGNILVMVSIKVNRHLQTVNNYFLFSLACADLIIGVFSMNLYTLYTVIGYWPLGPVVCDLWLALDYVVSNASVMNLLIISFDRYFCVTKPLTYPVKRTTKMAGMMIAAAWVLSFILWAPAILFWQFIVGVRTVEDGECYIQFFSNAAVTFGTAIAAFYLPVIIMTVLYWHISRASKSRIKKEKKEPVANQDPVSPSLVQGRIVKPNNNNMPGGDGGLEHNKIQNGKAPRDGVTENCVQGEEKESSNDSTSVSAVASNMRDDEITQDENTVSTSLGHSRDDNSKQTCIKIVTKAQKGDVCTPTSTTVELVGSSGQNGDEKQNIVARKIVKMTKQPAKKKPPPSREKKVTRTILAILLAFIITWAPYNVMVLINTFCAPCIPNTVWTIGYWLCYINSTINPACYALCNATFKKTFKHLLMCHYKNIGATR

M1 muscarinic receptor = target: T4, M1 muscarinic receptor (Rattus norvegicus, UniProt P08482); experiment: M1 muscarinic receptor binding, [3H] pirenzipine, rat hippocampus
T4 construct: from tissue; host or cells: rat hippocampus
T4 sequence (P08482 1-460): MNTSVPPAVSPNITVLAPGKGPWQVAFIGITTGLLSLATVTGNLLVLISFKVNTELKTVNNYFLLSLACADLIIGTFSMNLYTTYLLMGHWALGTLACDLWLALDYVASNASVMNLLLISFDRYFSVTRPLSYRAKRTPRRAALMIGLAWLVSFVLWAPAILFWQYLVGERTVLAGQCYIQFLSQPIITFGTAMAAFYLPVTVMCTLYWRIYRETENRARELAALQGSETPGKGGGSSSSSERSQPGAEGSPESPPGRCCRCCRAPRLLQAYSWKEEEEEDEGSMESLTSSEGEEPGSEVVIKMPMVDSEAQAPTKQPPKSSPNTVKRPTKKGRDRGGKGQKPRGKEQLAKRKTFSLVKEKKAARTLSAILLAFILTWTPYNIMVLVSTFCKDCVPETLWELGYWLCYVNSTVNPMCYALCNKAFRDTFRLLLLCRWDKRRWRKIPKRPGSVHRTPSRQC
Procedure: The M1 muscarinic receptor binding properties of the compounds of this invention were established as follows:
Homogenized rat hippocampus tissue is suspended in 0.32M aqueous sucrose solution and centrifuged (747×g for 10 minutes at 4° C.) and the supernatent liquid is decanted and recentrifuged (18,677×g for 20 minutes at 4° C.). The resulting pellet is resuspended in the original volume of 0.32M aqueous sucrose. The sample is then diluted 1:2 in 10 mM Na2 HPO4 /KH2 PO4 buffer (pH=7.4). A 100 μl sample of the buffered tissue suspension is incubated at 25° C. for 60 minutes in the dark with 10 μl of test compound or vehicle for control and [^3 H] pirenzipine (0.5 nM, 0.04 μCi) q.s. 1 milliliter with the buffer solution. Atropine sulfate (2 μM) is added to half the samples being processed. Binding is terminated by vacuum filtration onto Whatman GF/B filters which are washed three times with the buffer solution (3 ml/wash, 4° C.). […] Specific ]^3 H] PZ binding is defined as total binding minus binding in the presence of 2 μM atropine sulfate.

[3] = background statement, Barone et al., 1986; cited from earlier work

SMILES	inhibition at 1 µM [1] [%]	inhibition at 1 µM [2] [%]	other results
O=C(OCCN1CCN(c2ncccn2)CC1)C12CC3CC(CC1C3)C2 [Example 1, Hexahydro-2,5-methanopentalene-3a[1H]-carboxylic acid 2-[4-(2-pyrimidyl)-1-piperazinyl]ethyl ester]	93	47	pKi ([1]; calculated from IC50 values): 7.64
O=C(OCCCN1CCN(c2ncccn2)CC1)C12CC3CC(CC1C3)C2 [Example 3, Hexahydro-2,5-methanopentalene-3a[1H]-carboxylic acid 3-[4-(2-pyrimidyl)-1-piperazinyl]propyl ester]	–	–	inhibition at 0.1 µM ([1]; 100 nM test compound): 12%; pIC50 (M2 muscarinic receptor): 4.16; M2/M1 Ratio (M1 muscarinic receptor; IC50 M2 / IC50 M1): 81; pIC50 (M1 muscarinic receptor; rat hippocampus, [3H] pirenzipine 0.5 nM, 25° C., 60 minutes): 6.07
Cc1nc2sccn2c(=O)c1CCN1CCC(=C(c2ccc(F)cc2)c2ccc(F)cc2)CC1 [Ritanserin]	–	–	clinical efficacy as anxiolytic-antidepressant agents [3]: demonstrate clinical efficacy as anxiolytic-antidepressant agents

The next lines start with results.

inhibition at 1 µM [1] [%]	inhibition at 1 µM [2] [%]	SMILES	other results
95	100	COc1ccccc1N1CCN(CCOC(=O)C23CC4CC(CC2C4)C3)CC1 [Example 2, Hexahydro-2,5-methanopentalene-3a[1H]-carboxylic acid 2-[4-(2-methoxyphenyl)-1-piperazinyl]ethyl ester]	–
96	100	COc1ccccc1N1CCN(CCCOC(=O)C23CC4CC(CC2C4)C3)CC1 [Example 4, Hexahydro-2,5-methanopentalene-3a[1H]carboxylic acid 3-[4-(2-methoxyphenyl)-1-piperazinyl]propyl ester]	–
